Article PMC8220418, “A fragment-based approach to assess the ligandability of ArgB, ArgC, ArgD and ArgF in the L-arginine biosynthetic pathway of Mycobacterium tuberculosis” (Computational and Structural Biotechnology Journal, 2021)
Values after ≈ are worked out from the molar mass of the structure shown. Like-named read-outs stand apart in the source and are kept apart here.

Tests used:
ArgC [1] = target: T1, ArgC (Mycobacterium tuberculosis, UniProt P9WPZ9); experiment: X-ray crystallography of ArgC soaked with fragments (binding site); conditions: crystal soaking
Method: ArgC crystals grown in pH 5.5 were first soaked in 1.5 µL drops containing the mother liquor and 5 mM NADP^+ for 2 h in hanging drops that were equilibrated against a reservoir of 500 µL. Thereafter, the crystals were transferred to drops containing the crystallisation condition and an SPR-validated fragments (20 mM, 10% DMSO), which were equilibrated against 500 µL of mother liquor also containing a corresponding percentage of DMSO overnight at 19 °C. ArgC crystals grown in pH 7 were soaked with 5 mM NADP^+ only for 5–10 min due to the rapid development of cracks, and transferred to the fragment soaking drops for 5–10 min from where they were fished and frozen.
X-ray diffraction data (single-wavelength anomalous diffraction) were collected on beamlines i02, i03, i04, i04-1 and i24 at the Diamond Light Source (DLS), UK and on id30B at The European Synchrotron Radiation Facility (ESRF). Diffraction data were processed and reduced with autoPROC from Global Phasing Limited or Xia2 [31]. The apo-form of ArgB was crystallised in the R3_2 space group with one protomer per asymmetric unit (ASU) and the ArgB:NAG complex in the P6_3 space group with two protomers per ASU. ArgF was crystallized in the P2_1 space group with 6 protomers in the ASU. ArgC was crystallised in C2 and P2_1 space groups, with 2 and 4/8 protomers per ASU respectively. ArgD was crystallised in the P2_1 space group as well but with 4 protomers in the ASU.
Initial phases were determined with PHASER [32] from PHENIX software package using the M. tuberculosis ArgB structure (PDB: 2AP9), M. tuberculosis ArgF structure (PDB: 2P2G), M. tuberculosis ArgC structure (PDB: 2I3G) and E. coli Succinyl-ornithine transaminase (AstC, 42% sequence identity, PDB: 4ADB) as a search models, respectively for ArgB, ArgF, ArgC and ArgD. Model building was done with Coot, and refinement was performed in PHENIX [33], [35] for ArgB, ArgF, and ArgC. For ArgD, after the initial molecular replacement solution and a single cycle of refinement, PHENIX AutoBuild was used to generate a model for M. tuberculosis ArgD that was then refined with Coot and PHENIX. Structure validation was performed using Coot and PHENIX tools, [34]. All figures were prepared with PyMOL (The PyMOL Molecular Graphics System, Version 2.0 Schrodinger, LLC).

ArgC [2] = target: T1, ArgC; experiment: Surface plasmon resonance with immobilised ArgC; type: binding
Method: Low molecular weight (LMW) screening with the DSF fragment hits was carried out using the T200 Biacore instrument (GE Healthcare Life Sciences). A series S CM5 sensor chip (GE Healthcare Life Sciences) was used for the immobilisation of ArgC on the carboxymethylated dextran matrix through amine coupling. A 25 μg/mL ArgC dilution was prepared in the optimal coupling buffer (sodium acetate pH 5), and immobilisation was performed by manual instructions. The immobilised ArgC was tested using dilution series (19 μM to 2.5 mM) of NADP^+ and NADPH. 50 mM fragment DMSO stocks were used to prepare 1 mM dilutions in the SPR buffer consisting of 10 mM sodium phosphate pH 7.0, 150 mM NaCl and 2% DMSO (v/v). Each NADP^+/NADPH and fragment dilution was injected once at a flow rate of 30 μL/min for a contact time of 30 s, SPR Running buffer (10 mM sodium phosphate pH 7.0 and 150 mM NaCl) was passed for 320 s at the same flow rate, and 50% DMSO v/v (diluted in SPR running buffer) was injected at the end of the cycle to remove undissociated analyte. Solvent correction was carried out to account for DMSO mismatch between the analyte dilutions and the SPR running buffer.
The fragment hits obtained previously were injected at a concentration of 1 mM. The sensorgrams for all the analytes were inspected visually to exclude fragments with either no discernible response or a “sticky” profile from further analysis (representative sensorgrams for fragment binders are shown in Fig. S2a and b). The binding level was calculated using the T200 software and adjusted for molecular weights of the analytes (Fig. S2c and d). For ArgC, 22 fragments with a binding level response ≥20 RU were shortlisted, whereas in the case of ArgD, 20 fragments with a response ≥10 RU were shortlisted for crystallographic validation. Fragments were thereafter described either as SPR ‘positive’ or ‘negative’.

ArgC [3] = target: T1, ArgC; experiment: Differential scanning fluorimetry (DSF) fragment screening against ArgC; type: binding; conditions: for ΔTm at 5000 µM: fragments at 5 mM, 2.5 μM ArgC; for DSF ΔTm: 1 mM co-factor, average across all DSF runs
Method: (§1) Fragment screening was carried out in a 96-well PCR plate using a CFX Connect Real-time PCR Detection System (Bio-Rad) for DSF. For ArgB, each 25 μL reaction mixture contained 10 µM ArgB, 100 mM HEPES (pH 7.5), 200 mM NaCl, 5x SYPRO Orange, 5% DMSO (v/v), and fragments at 5 mM. For ArgF each 25 μL reaction mixture contained 5 µM ArgF, 25 mM Tris-HCl (pH 8.0), 150 mM NaCl, 5x SYPRO Orange dye, 5 mM fragments and 5% DMSO (v/v). For ArgC and ArgD, the 25 μL reaction volume consisted of the following: 2.5 μM ArgC/5 μM ArgD, 100 mM sodium phosphate pH 7, 200 mM NaCl, 5x SYPRO Orange, and 5 mM fragments (960 fragment library). The protocol implemented increased temperature by 0.5 °C after every 30 s, going from 25 °C to 95 °C and measuring SYPRO Orange fluorescence for each temperature cycle. The melt curve RFU (relative fluorescence units) and derivative -d(RFU)/dT values were analysed and plotted using a macros-enabled Excel Workbook: the minima of the melt curves were recorded as the melting temperature (Tm) of the enzymes in the presence of each fragment. The Tm of the reference control (protein in the presence of DMSO) was subtracted from all the readings to calculate ΔTm.

ArgC [4] = target: T1, ArgC; experiment: ArgC enzymatic assay (NADPH oxidation at 340 nm); type: biochemical; conditions: 2 mM fragment, 3.5 μM ArgC, 2.5% DMSO
Method: To synthesise the ArgC substrate, a reaction mixture containing 3 μM ArgB, 1 mM NAG and 1 mM ATP in 50 mM Tris-HCl pH 7.5, 100 mM NaCl and 40 mM MgCl2 was made and the reaction was allowed to proceed for 1–1.5 h at room temperature. Thereafter, 100 μL of the ArgC reaction mixture consisting of 50 mM Tris-HCl pH 7.5, 100 mM NaCl and 0.6 mM NADPH (concentration in 200 μL), was added to each well together with 100 μL of the ArgB reaction mixture and followed for 30 min at 35 °C by measuring the oxidation of NADPH at 340 nm. Controls with only NADPH, 2.5% DMSO (v/v) and no ArgC, as well as only NADPH, 4 mM fragment and no ArgC were prepared. Baseline ArgC activity was assayed with and without DMSO, the effect of 2.5% and 5% DMSO on enzymatic activity was also tested. […] All conditions were prepared in triplicates. 3.5 μM ArgC was added just before measurements were started.

ArgB [5] = target: T2, ArgB (Mycobacterium tuberculosis, UniProt P9WQ01); experiment: biochemical; type: binding; conditions: ITC Kd, six-site sequential binding model, 25 °C, sequential binding, six-site model
[6] = test system: M. tuberculosis MDR strain V2475; experiment: microbe, parasite or virus in culture; type: cell-based, Mycobacterium tuberculosis; conditions: Mycobacterium tuberculosis
ArgB [7] = target: T2, ArgB; experiment: ArgB enzymatic assay (ADP release coupled to NADH oxidation, pyruvate kinase/lactate dehydrogenase); type: biochemical; conditions: IC50, 0.5 µM ArgB, 0.3 mM ATP, 1.25 mM NAG, 10% DMSO
Method: ArgB activity was assessed by a colorimetric assay that followed the release of ADP by measuring the oxidation of NADH at 340 nm, for 30 min, in the presence of pyruvate kinase and lactate dehydrogenase in a PHERAstar plate-reader (BMG-Labtech). […]. Inhibitors were also individually screened against the coupled enzymes to eliminate any compounds interfering with the other assay components. Competition assays were performed in the same conditions using 0.3 mM of ATP or NAG and varying the other substrate concentration.

M. tuberculosis ΔargB-c = experiment: microbe, parasite or virus in culture; type: cell-based, Mycobacterium tuberculosis
M. tuberculosis H37Rv = experiment: microbe, parasite or virus in culture; type: cell-based, Mycobacterium tuberculosis
ArgB [8] = target: T2, ArgB; experiment: Differential scanning fluorimetry (DSF) fragment screening against ArgB; type: binding; conditions: known ligands (positive controls); 1 mM for ATP, N-acetyl-glutamate, L-arginine
Method: as §1

ArgF = ArgF (Mycobacterium tuberculosis, UniProt P9WIT9); experiment: biochemical; type: binding; conditions: natural ligands at 1 mM
Method: Fragment screening was carried out in a 96-well PCR plate using a CFX Connect Real-time PCR Detection System (Bio-Rad) for DSF. […] For ArgF each 25 μL reaction mixture contained 5 µM ArgF, 25 mM Tris-HCl (pH 8.0), 150 mM NaCl, 5x SYPRO Orange dye, 5 mM fragments and 5% DMSO (v/v). […] The protocol implemented increased temperature by 0.5 °C after every 30 s, going from 25 °C to 95 °C and measuring SYPRO Orange fluorescence for each temperature cycle. The melt curve RFU (relative fluorescence units) and derivative -d(RFU)/dT values were analysed and plotted using a macros-enabled Excel Workbook: the minima of the melt curves were recorded as the melting temperature (Tm) of the enzymes in the presence of each fragment. The Tm of the reference control (protein in the presence of DMSO) was subtracted from all the readings to calculate ΔTm.

ArgD = ArgD (Mycobacterium tuberculosis, UniProt P9WPZ7); experiment: Differential scanning fluorimetry (DSF) against ArgD; type: binding
[9] = fragments at 1 mM, adjusted for molecular weight

T1 sequence (P9WPZ9 whole entry, the tested form may be a part): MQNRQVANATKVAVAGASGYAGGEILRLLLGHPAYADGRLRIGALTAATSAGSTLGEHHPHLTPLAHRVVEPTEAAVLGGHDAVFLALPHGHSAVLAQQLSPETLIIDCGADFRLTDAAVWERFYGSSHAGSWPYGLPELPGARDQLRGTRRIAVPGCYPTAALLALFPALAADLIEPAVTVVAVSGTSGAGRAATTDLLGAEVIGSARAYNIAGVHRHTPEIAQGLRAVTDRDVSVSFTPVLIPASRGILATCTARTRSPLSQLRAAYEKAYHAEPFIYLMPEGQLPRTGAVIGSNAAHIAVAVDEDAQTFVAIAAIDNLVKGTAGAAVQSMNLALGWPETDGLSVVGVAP
Chain of ArgD (P9WPZ7 whole entry, the tested form may be a part): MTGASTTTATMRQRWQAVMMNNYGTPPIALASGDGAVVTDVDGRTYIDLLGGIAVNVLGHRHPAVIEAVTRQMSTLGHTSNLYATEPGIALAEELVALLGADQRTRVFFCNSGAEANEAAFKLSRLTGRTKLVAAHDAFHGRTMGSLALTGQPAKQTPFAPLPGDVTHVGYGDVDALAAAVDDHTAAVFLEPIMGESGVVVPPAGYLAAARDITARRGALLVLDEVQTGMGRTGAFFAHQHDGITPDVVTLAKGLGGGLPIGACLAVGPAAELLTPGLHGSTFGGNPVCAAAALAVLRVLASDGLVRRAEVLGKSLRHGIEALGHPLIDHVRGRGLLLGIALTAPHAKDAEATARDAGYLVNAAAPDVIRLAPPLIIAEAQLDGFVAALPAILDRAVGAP
Chain of ArgF (P9WIT9 whole entry): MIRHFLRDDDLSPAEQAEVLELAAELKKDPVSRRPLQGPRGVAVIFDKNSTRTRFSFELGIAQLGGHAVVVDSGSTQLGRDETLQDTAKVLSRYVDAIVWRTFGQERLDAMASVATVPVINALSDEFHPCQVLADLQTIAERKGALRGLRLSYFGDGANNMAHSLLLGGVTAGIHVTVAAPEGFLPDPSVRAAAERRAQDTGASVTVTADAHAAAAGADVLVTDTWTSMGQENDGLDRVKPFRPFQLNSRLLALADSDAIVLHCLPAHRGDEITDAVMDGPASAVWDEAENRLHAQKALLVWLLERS

## O=C(O)C1c2ccccc2Oc2ccccc21 [NMR571, Xanthene-9-carboxylic acid]
ArgC [1]
  Binding site (X-ray): Substrate
ArgC [2]; [9]
  SPR Binding Response: 78.0 RU
ArgC [3]
  ΔTm at 5000 µM: 3.1 °C
ArgC [4]
  inhibition at 2000 µM: 37%

## NC(N)=NOCC[C@H](N)C(=O)O [L-canavanine, reference compound]
ArgB [5]; 1st value
  Kd: 4.5 µM
ArgB [5]; 2nd value
  Kd: 4.8 µM
ArgB [5]; 3rd value
  Kd: 6.4 µM
ArgB [5]; 4th value
  Kd: 34 µM
ArgB [5]; 5th value
  Kd: 35 µM
ArgB [5]; 6th value
  Kd: 137 µM
[6]
  MIC: > 200 µg/mL
ArgB [7]
  IC50: 1460 ± 2 µM
M. tuberculosis ΔargB-c
  Inhibitory activity on growth with arginine present: no inhibitory activity
M. tuberculosis ΔargB-c; Mycobacterium tuberculosis
  MIC: 50 µg/mL (≈ 284 µM)
M. tuberculosis H37Rv; Mycobacterium tuberculosis, media without arginine
  MIC: 50 µg/mL (≈ 284 µM)
M. tuberculosis H37Rv; arginine (1 mM) in the media
  Inhibitory activity on growth with arginine present: no inhibitory activity
ArgB [8]
  ΔTm at 1000 µM: 7.2 °C

## Nc1ccc(Oc2ccccc2)nc1 [NMR401, 6-phenoxy-3-pyridinamine]
ArgC [1]
  Binding site (X-ray): Co-factor
ArgC [2]; [9]
  SPR Binding Response: 36.7 RU
ArgC [3]
  ΔTm at 5000 µM: 4.8 °C
ArgC [4]
  inhibition at 2000 µM: 10%

## N=C(N)NCCC[C@H](N)C(=O)O [L-arginine]
ArgB [5]; 1st value
  Kd: 4.5 µM
ArgB [5]; 2nd value
  Kd: 4.8 µM
ArgB [5]; 3rd value
  Kd: 6.1 µM
ArgB [5]; 4th value
  Kd: 9.4 µM
ArgB [5]; 5th value
  Kd: 12.9 µM
ArgB [5]; 6th value
  Kd: 42 µM
ArgB [7]
  IC50: 146 ± 1 µM
ArgB [8]
  ΔTm at 1000 µM: 11.8 °C

## COc1ccc2oc(C(=O)O)nc2c1 [NMR863, 5-methoxy-1,3-benzoxazole-2-carboxylic acid]
ArgC [1]
  Binding site (X-ray): Co-factor
ArgC [2]; [9]
  SPR Binding Response: 41.6 RU
ArgC [3]
  ΔTm at 5000 µM: 5 °C
ArgC [4]
  inhibition at 2000 µM: 12%

## Nc1ncnc2c1ncn2[C@@H]1O[C@H](COP(=O)(O)OP(=O)(O)OP(=O)(O)O)[C@@H](O)[C@H]1O [ATP]
ArgB [8]
  DSF ΔTm: +2.0 °C

## CC(=O)N[C@@H](CCC(=O)O)C(=O)O [NAG, N-acetyl-L-glutamic acid]
ArgB [8]
  ΔTm at 1000 µM: 8.6 °C

## NCCC[C@H](N)C(=O)O [L-ornithine, reference compound]
ArgF
  DSF ΔTm: 1.5 °C

## NC(=O)NCCC[C@H](N)C(=O)O [L-citruline, L-citrulline, reference compound]
ArgF; read-out: DSF ΔTm
  ΔTm at 1000 µM: 1 °C

## COc1ccc2[nH]cc(CC(=O)O)c2c1 [NMR322, 5-Methoxy-3-indoleacetic acid]
ArgC [1]
  Binding site (X-ray): Substrate
ArgC [2]; [9]
  SPR Binding Response: 80.5 RU
ArgC [3]
  ΔTm at 5000 µM: 3.1 °C
ArgC [4]
  inhibition at 2000 µM: 45%

## NC(=O)c1ccc[n+]([C@@H]2O[C@H](COP(=O)([O-])OP(=O)(O)OC[C@H]3O[C@@H](n4cnc5c(N)ncnc54)[C@H](OP(=O)(O)O)[C@@H]3O)[C@@H](O)[C@H]2O)c1 [NADP, reference compound]
ArgC [1]
  Binding site (X-ray): Co-factor
ArgC [2]; 1.25 mM
  SPR Binding Response: 19.5 (1.25 mM) RU
ArgC [3]
  DSF ΔTm: +0.6 °C
ArgC [3]; listed as NADP^+
  DSF ΔTm: ~ 0.6 °C

## NC(=O)C1=CN([C@@H]2O[C@H](COP(=O)(O)OP(=O)(O)OC[C@H]3O[C@@H](n4cnc5c(N)ncnc54)[C@H](OP(=O)(O)O)[C@@H]3O)[C@@H](O)[C@H]2O)C=CC1 [NADPH, reference compound]
ArgC [1]
  Binding site (X-ray): Co-factor
ArgC [2]; 1.25 mM
  SPR Binding Response: 16.3 (1.25 mM) RU
ArgC [3]
  DSF ΔTm: −0.9 °C

## Cc1ncc(COP(=O)(O)O)c(C=O)c1O [PLP, pyridoxal-5′-phosphate]
ArgD
  Melting temperature of ArgD after addition of PLP: 79 °C
ArgD; PLP (1 mM), PLP-unsaturated ArgD
  ΔTm at 1000 µM: 13 °C
ArgD; PLP-unsaturated ArgD + 1 mM PLP
  Melting temperature of ArgD after addition of PLP: 77.5 °C
